From patent US4632922A, “Oxomorpholinyl dimer and rescue of anthracycline and mitomycin C damage” (The United States of America as represented by the …, priority 1985, dated 1986) come the findings set out here.

The structures appear in SMILES notation.

The nature of experiment [1]: Kinetics of reaction of DHM3 with daunorubicin in methanol solvent. On the procedure:
Oxomorpholinyl dimer DHM3 (5.8 mg) was dissolved in 100 ml of oxygen-free dichloromethane by stirring under nitrogen for 1 h. A portion of the solution (1.0 ml, 1.8×10^-4 mmol) of DHM3 was transferred via syringe to the spectrophotometric compartment of a two-compartment Pyrex cell with attachment for connection to a vacuum line with an Ultra Torr Union. The solvent was then evaporated with a stream of nitrogen. Daunorubicin hydrochloride (8.83 mg) was dissolved in 100 ml of a methanolic solution of 18.9 mg of tris(hydroxymethyl)aminomethane (Tris) and 24.7 mg of Tris hydrochloride. A portion of this solution (2.5 ml, 3.9×10^-4 mmol of 6) was introduced via syringe into the second compartment of the cell. The methanol solution was freeze (liquid nitrogen)-pump (2×10^-6 Torr)-thaw degassed through four cycles, sealed, and placed in a thermostatted cell holder at 25.1±0.1° C. for about 15 min. prior to mixing the solution with DHM3. After mixing, the average absorbance at 618 and 620 nm was recorded versus time. A non-linear least-squares treatment of the data as mentioned below gave a first order rate constant for bond homolysis of DHM3 equal to 1.8×10^-3 sec^-1.
The oxomorpholinyl dimer DHM3 causes reductive elimination of the sugar moiety, daunosamine, of daunorubicin (6) in much the same way as the structurally related bi(3,5,5-trimethyl-2-oxomorpholin-3-yl) (9). (See Schematic FIG. 2). […] The kinetics were established by regressional, non-linear least squares fitting of the absorbance versus time data to equation 1,
-k1))(e^-k.sbsp.1^t -e^-k.sbsp.2^t)
where At is the absorbance of 7 at time t, ε7 is the extinction coefficient of 7 at 618-620 nm, [DHM3]o is the concentration of DHM-3 at time zero, k1 is the rate constant for bond homolysis of DHM3 and k2 is the rate constant for tautomerization of 7 to 8. The value obtained for k1, 1.8×10^-3 sec^-1, was approximately half that obtained for bond homolysis of 9. […]

Experiment [2] can be described thus: Kinetics of reaction of DHM3 with daunorubicin in water solvent. How it is done:
A test similar to that described for the same reaction in methanol solvent (vide supra) was run. Oxomorpholinyl dimer DHM3 (1.38 mg, 4.37×10^-3 mmol) was dissolved in 0.5 ml of oxygen-free methanol and quickly transferred without delay into one compartment of the cell. The solvent was promptly removed under vacuum. Daunorubicin hydrochloride ([…]) was dissolved in 100 ml of an aqueous solution of Tris (24.2 mg) and Tris hydrochloride (31.6 mg) and 2.6 ml of this solution (4.18×10^-4 mmol of 6) was introduced into the other compartment of the cell. The sample was freeze-thaw degassed over three cycles as described above, sealed, and placed in a thermostatted cell holder at 10.0±0.1° C. for about 20 min prior to mixing. Full spectra between 320 and 800 nm were recorded every 10 sec for the first 125 sec, and then every 20 sec. From the absorbance change at 620 nm over the first 85 sec (50% reaction of daunorubicin), a non-linear least-squares treatment gave a first order rate constant for bond homolysis of DHM3 (k1) equal to 6×10^-4 sec^-1 and a first order rate constant for destruction of 7 (k2) equal to 2×10^-2 sec^-1. Treatment of the data obtained in the 164-225 sec interval gave k2 =2.8×10^-2 sec^-1.
Thus, when a ten-fold excess of DHM3 is reacted with an oxygen-free 2×10^-4 M solution of 6 in buffered water (pH8) at 10° C., the absorbance of the solution at 618-620 nm, due to the tautomer 7, reaches its maximum after 125 sec and then decreases quickly, with an 80% decrease in 100 sec. Here again the formation and destruction of 7, as calculated from the data obtained in the first 85 sec of reaction, follows consecutive first order kinetics, first order in DHM3 and 7, with k1 =6×10^-4 sec^-1, k2 =2×10^-2 sec^-1 and ε7 =9600. Calculation of k2 from the absorbance data taken after 165 sec of reaction time, when only first order destruction of 7 is observed, gives a value of 2.8×10^-2 sec^-1.

Experiment [3] concerns drug-induced skin necrosis. The experiment in a line: Protection by DHM3 against drug-induced skin necrosis in the swine model. It is filed as in vivo. The settings on record: for Percent Reduction of Maximal Ulcer Size: DHM3 15 min later. On the procedure: DOX HCl (2.0 mg/ml) was administered intradermally (i.d.) with a 25 gauge needle inserted approximately 4 to 5 mm into the skin. Following the injection of 0.5, 0.75 or 1.0 ml (1.0, 1.5, or 2.0 mg, respectively) DOX solution, the syringe was removed from the hub leaving the needle in place. After the indicated time interval, 1.0 ml (10 mg) DHM3 was injected through the same needle and the needle was then removed. Control sites received 1.0 ml sterile water instead of DHM3. The injection sites were along the mid-lateral aspect of each side of the swine and were 4-5 cm apart (6-8 injection sites per side). One animal was used for a dose experiment where DOX, 0.5 ml/site was injected along one side and 1.0 ml/site was injected along the contralateral side. Fifteen minutes later, DHM3 or water was injected into alternating sites as described above. A second animal received DOX, 0.75 ml/site along both sides. DHM3 or water was injected into alternating sites at times varying from 5 to 120 minutes following DOX administration.
In a separate study, equimolar amounts of several compounds used in experimental or clinical cancer chemotherapy were injected into pig skin using the same method described above. Paired injection sites were treated 15 minutes later with either H2 O or DHM3 in duplicate.
All lesions were measured by a single observer with metric calipers three times weekly for two weeks, followed by weekly measurements thereafter. The areas of skin ulceration and induration were estimated by the product of the cross perpendicular diameters. The total toxicity of DOX-induced skin ulceration was determined by calculating the area under the ulceration-time curve (AUC) in mm^2 -days.

On to `CC1(CO)COC(=O)C(C)(C2(C)NC(C)(CO)COC2=O)N1` (stereo not shown) [DHM3, bi(3,5-dimethyl-5-hydroxymethyl-2-oxomorpholin-3-yl)], for which the “reaction product with daunorubicin” value in experiment [1] (1:2 molar ratio, oxygen degassed methanol, 25° C.) is “gives 7-deoxydaunorubicinone 8 as the only reaction product”. The “k1 relative to that obtained for bond homolysis of 9” value in experiment [1] (methanol, 25° C.) is on record as “approximately half”. The “first order rate constant for bond homolysis of DHM3 (k1)” value in experiment [1] (methanol, 25.1±0.1° C., with daunorubicin) was 0.0018 s⁻¹; in experiment [2] (buffered water (pH8), 10.0±0.1° C., first 85 sec) it was 0.0006 s⁻¹. Also, in experiment [2] (DHM3 in water vs TM-3 in methanol), the “reactivity with daunorubicin compared with TM-3” value is recorded as “approximately the same reactivity”. The “Percent Reduction of Maximal Ulcer Size” value in experiment [3] (against 4'-Epidoxorubicin, Exper. 4) is listed as 51%; in experiment [3] (against 4-Demethoxydaunorubicin, Exper. 4), 79%; in experiment [3] (against 5-Iminodaunorubicin, Exper. 3), 53%; in experiment [3] (against Aclarubicin, Exper. 4) it was 46%; in experiment [3] (against Adriamycin, Exper. 1), 77%; in experiment [3] (against Adriamycin, Exper. 2) it was 40%. For the same compound, the “Percent Reduction of Maximal Ulcer Size” value in experiment [3] (against Daunorubicin, Exper. 2) was found to be 39%; in experiment [3] (against Menogaril, Exper. 4) it was 61%; in experiment [3] (against Mitomycin C, Exper. 3), 58%. Moreover, the “protection against drug-induced skin necrosis” value in experiment [3] (against Mitoxantrone), in experiment [3] (against Vinblastine) and in experiment [3] (against Vincristine) was “no protection observed” each time. Moreover, the “protection against tissue necrosis” value in experiment [3] (several anthracycline analogs and mitomycin C) is listed as “effective in all cases”. In addition, the “protection against skin injury” value in experiment [3] (vinca alkaloid and mitoxantrone) is listed as “did not protect”.
